Experiment: Gel test (vial inversion)
Assay type: physicochemical
Method: A weighed amount of solid was dissolved in 0.5 or 1 ml of the solvent in a closed 2.0 ml vial using a heating gun or a heating block and subsequently slowly cooled to room temperature by standing in the air. Gelation was determined by turning the vial upside down and gentle shaking. If no flow of the mass was observed, the mass was defined to be a gel. Alternatively, a weighed amount of solid was dissolved in 1 mL of solvent by the addition of acid or base. The subsequent addition of base or acid then gave gelation. Alternatively, a weighed amount of solid was dissolved in a small amount of solvent. The subsequent addition of a large amount of non-solvent then gave gelation. Alternatively, the solution of gelator/thickener was added to the non-solvent, resulting in gelation. Alternatively, a weighed amount of solid was mixed with 1 mL of solvent by sonication. After stopping the sonication, gelation occurred. Alternatively a weighed amount of solid was mixed with 1 mL of solvent by brief vortexing after which gelation occurred. Alternatively a weighed amount of solid was mixed with 1 mL of solvent after which gelation occurred.

[1] = PEG 400 (printed PEG for compound 20)

With `O=C(O)[C@H]1C[C@@H](C(=O)N[C@@H](Cc2ccccc2)C(=O)Nc2ccc3ccccc3c2)C[C@@H](C(=O)N[C@@H](Cc2ccccc2)C(=O)Nc2ccc3ccccc3c2)C1` [Compound 34, CHex(AmPheAmβNA)2(COOH)] the Gel test (H2O, concentration not given) was “gel” and the Gel test (H2O/t-BuOH (TBA/H2O) mixtures) was “gel”.
For `O=C(N[C@@H](Cc1ccccc1)C(=O)NC1CCCCC1)[C@H]1C[C@@H](C(=O)OCc2ccccc2)C[C@@H](C(=O)OCc2ccccc2)C1` [Compound 16, CHex(OBn)2(AmPheAmCHex)], the Gel test (EtOH) was “gel”, the Gel test (MeCN) was “gel” and the Gel test [1] was “gel”. The Gel test (olive oil) was “gel”.
For `O=C(NCCOCCO)[C@@H]1C[C@H](C(=O)NCCOCCO)C[C@H](C(=O)N[C@@H](Cc2ccccc2)C(=O)NC2CCCCC2)C1` [Compound 18, CHex(AmPheAmCHex)(AmEtOEtOH)2], the Gel test (2 mg/mL in H2O) was “clear gel” and the Gel test (20 mg/mL in DMSO) was “turbid gel”.
For `CSCC[C@H](NC(=O)[C@@H]1C[C@H](C(=O)NCCO)C[C@H](C(=O)NCCO)C1)C(=O)Nc1ccc2ccccc2c1` [Compound 5, CHex(AmMet-AmβNA)(AmEtOH)2], the Gel test (2 mg/mL in H2O) was “clear gel”.
In the case of `O=C(O)[C@H]1C[C@@H](C(=O)N[C@@H](CO)C(=O)Nc2ccc3ccccc3c2)C[C@@H](C(=O)N[C@@H](CO)C(=O)Nc2ccc3ccccc3c2)C1` [Compound 36, CHex(AmSerAmβNA)2(COOH)], the Gel test (DMSO/CH2Cl2 mixtures) is reported as “gel”, the Gel test (DMSO/EtOH mixtures) is reported as “gel” and the Gel test (DMSO/H2O mixtures) is reported as “gel”. For the same compound, the Gel test (DMSO/MeCN mixtures) was “gel”, the Gel test (DMSO/toluene mixtures) was “gel” and the Gel test (H2O, concentration not given) was “gel”. For the same compound, the Gel test (H2O/t-BuOH (TBA/H2O) mixtures) was “gel” and the Gel test (MeCN) was “weak gel”.
In the case of `NC(=O)CC[C@H](NC(=O)[C@@H]1C[C@H](C(=O)O)C[C@H](C(=O)N[C@@H](CCC(N)=O)C(=O)Nc2ccc3ccccc3c2)C1)C(=O)Nc1ccc2ccccc2c1` [Compound 38, CHex(AmGlnAmβNA)2(COOH)], the Gel test (H2O, concentration not given) is reported as “gel”.
With `O=C(O)[C@@H]1C[C@H](C(=O)O)C[C@H](C(=O)N[C@@H](Cc2ccccc2)C(=O)Nc2ccc3ccccc3c2)C1` [Compound 1, CHex(AmPhe-AmβNA)(COOH)2] the Gel test (3 mg/mL in H2O) was “slightly crystalline gel”.
In the case of `CCCC[C@H](NC(=O)[C@@H]1C[C@H](C(=O)O)C[C@H](C(=O)N[C@@H](CCCC)C(=O)OC)C1)C(=O)OC` [Compound 31, CHex(AmNleOMe)2(COOH)], the Gel test (EtOH) is reported as “gel” and the Gel test [1] is reported as “gel”.
For `O=C(O)[C@@H]1C[C@H](C(=O)O)C[C@H](C(=O)N[C@@H](Cc2ccccc2)C(=O)N[C@@H](Cc2ccccc2)C(=O)O)C1` [Compound 23, CHex(AmPheAmPheOH)(COOH)2], the “Aqueous gel formation by acidification” value (compound 22 heated in 1N NaOH (aq), cooled to RT, 2N HCl (aq) added) was “gel”.
With `CSCC[C@H](NC(=O)[C@@H]1C[C@H](C(=O)O)C[C@H](C(=O)O)C1)C(=O)Nc1ccc2ccccc2c1` [Compound 3, CHex(AmMet-AmβNA)(COOH)2] the Gel test (3 mg/mL in H2O) was “slightly crystalline gel”.
For `CSCC[C@H](NC(=O)[C@@H]1C[C@H](C(=O)NCc2ccncc2)C[C@H](C(=O)NCc2ccncc2)C1)C(=O)Nc1ccc2ccccc2c1` [Compound 6, CHex(AmMet-AmβNA)(AmCH2Pyr)2], the Gel test (1 mg/mL in H2O) was “slightly turbid gel”.
In the case of `C[C@H](NC(=O)[C@@H]1C[C@H](C(=O)O)C[C@H](C(=O)O)C1)C(=O)Nc1ccc2ccccc2c1` [Compound 13, CHex(AmAlaAmβNA)(COOH)2], the Gel test (H2O, concentration not given) is reported as “gel”.
With `CCCCCCCCCCNC(=O)[C@H](Cc1ccccc1)NC(=O)[C@@H]1C[C@H](C(=O)NCCOCCO)C[C@H](C(=O)NCCOCCO)C1` [Compound 20, CHex(AmPheAmDecyl)(AmEtOEtOH)2] the Gel test (EtOH) was “gel”, the Gel test (H2O, concentration not given) was “gel” and the Gel test [1] was “gel”. For the same compound, the Gel test (toluene) was “gel”.
In the case of `O=C(CNC(=O)[C@H](Cc1ccccc1)NC(=O)[C@@H]1C[C@H](C(=O)O)C[C@H](C(=O)O)C1)Nc1ccc2ccccc2c1` [Compound 27, CHex(AmPheAmGlyAmβNA)(COOH)2], the Gel test (H2O, concentration not given) is reported as “gel”.
With `O=C(O)[C@@H]1C[C@H](C(=O)O)C[C@H](C(=O)N[C@@H](Cc2ccccc2)C(=O)NCCc2ccccc2)C1` [Compound 25, CHex(AmPheAmEtPh)(COOH)2] the Gel test (H2O, concentration not given) was “gel” and the Gel test (toluene) was “gel”.
